Article PMC11788587, “Validating Low‐Dose Iohexol as a Marker for Glomerular Filtration Rate by In Vitro and In Vivo Studies” (Clinical and Translational Science, 2025)

Molecular target: T1, hMDR1 (Homo sapiens, UniProt P08183)
T1 construct: purchased Pharm Tox, Netherlands; host or cells: HEK293 cells (membrane vesicles)
Experiment: Inhibition of hMDR1-mediated 3H-NMQ uptake, inside-out membrane vesicles
Assay type: biochemical
Conditions: substrate 0.01 µM 3H-NMQ, median (95% CI)
Text: We characterized the inhibitory potential of iohexol on major drug transporters recommended by regulatory agencies, which were previously assessed in a clinical transporter phenotyping cocktail study. These transporters include hOAT1, hOAT3, hOCT1, hOCT2, hMATE1, hMATE2K, human organic anion transporter polypeptides (hOATP)1B1, hOATP1B3, and human multidrug resistance protein (hMDR)1. Additionally, we investigated whether iohexol is a substrate for any of the renal transporters among these, including hOAT1/3, hOCT1/2, and hMATE1/2K. Cell‐based uptake assays were used to assess the activities of hOAT1/3, hOCT1/2, hMATE1/2K, and hOATP1B1/1B3. Inside‐out membrane vesicle uptake assays were used to evaluate the activity of hMDR1.
To determine the maximal inhibitory potential of iohexol, intracellular accumulation of a standard substrate was measured with and without the clinically relevant highest concentrations of iohexol. Control inhibitors were tested in each experiment.
In all subsequent in vitro studies, control experiments were conducted to validate the results. […] Each condition, including cells or vesicles with the transporter and their respective controls, was analyzed in at least three replicates. […]
R version 4.2.1 (R Foundation for Statistical Computing, Vienna, Austria) was used for statistical evaluations and data visualization. The data analysis approach for the in vitro study was detailed by Hsin CH et al..^1 In brief, for transport assays, the initial uptake rate was calculated by normalizing the substrate concentration to both the protein concentration and the incubation time for each dish or well. The transporter-mediated uptake rate (net uptake) was determined by performing an element-wise subtraction of uptake rates from different conditions. […] Net uptake rates were determined by subtracting the uptake rate of the control cells or vesicles from that of the transporter-expressing cells or vesicles for each pair. […]

T1 sequence (P08183 whole entry): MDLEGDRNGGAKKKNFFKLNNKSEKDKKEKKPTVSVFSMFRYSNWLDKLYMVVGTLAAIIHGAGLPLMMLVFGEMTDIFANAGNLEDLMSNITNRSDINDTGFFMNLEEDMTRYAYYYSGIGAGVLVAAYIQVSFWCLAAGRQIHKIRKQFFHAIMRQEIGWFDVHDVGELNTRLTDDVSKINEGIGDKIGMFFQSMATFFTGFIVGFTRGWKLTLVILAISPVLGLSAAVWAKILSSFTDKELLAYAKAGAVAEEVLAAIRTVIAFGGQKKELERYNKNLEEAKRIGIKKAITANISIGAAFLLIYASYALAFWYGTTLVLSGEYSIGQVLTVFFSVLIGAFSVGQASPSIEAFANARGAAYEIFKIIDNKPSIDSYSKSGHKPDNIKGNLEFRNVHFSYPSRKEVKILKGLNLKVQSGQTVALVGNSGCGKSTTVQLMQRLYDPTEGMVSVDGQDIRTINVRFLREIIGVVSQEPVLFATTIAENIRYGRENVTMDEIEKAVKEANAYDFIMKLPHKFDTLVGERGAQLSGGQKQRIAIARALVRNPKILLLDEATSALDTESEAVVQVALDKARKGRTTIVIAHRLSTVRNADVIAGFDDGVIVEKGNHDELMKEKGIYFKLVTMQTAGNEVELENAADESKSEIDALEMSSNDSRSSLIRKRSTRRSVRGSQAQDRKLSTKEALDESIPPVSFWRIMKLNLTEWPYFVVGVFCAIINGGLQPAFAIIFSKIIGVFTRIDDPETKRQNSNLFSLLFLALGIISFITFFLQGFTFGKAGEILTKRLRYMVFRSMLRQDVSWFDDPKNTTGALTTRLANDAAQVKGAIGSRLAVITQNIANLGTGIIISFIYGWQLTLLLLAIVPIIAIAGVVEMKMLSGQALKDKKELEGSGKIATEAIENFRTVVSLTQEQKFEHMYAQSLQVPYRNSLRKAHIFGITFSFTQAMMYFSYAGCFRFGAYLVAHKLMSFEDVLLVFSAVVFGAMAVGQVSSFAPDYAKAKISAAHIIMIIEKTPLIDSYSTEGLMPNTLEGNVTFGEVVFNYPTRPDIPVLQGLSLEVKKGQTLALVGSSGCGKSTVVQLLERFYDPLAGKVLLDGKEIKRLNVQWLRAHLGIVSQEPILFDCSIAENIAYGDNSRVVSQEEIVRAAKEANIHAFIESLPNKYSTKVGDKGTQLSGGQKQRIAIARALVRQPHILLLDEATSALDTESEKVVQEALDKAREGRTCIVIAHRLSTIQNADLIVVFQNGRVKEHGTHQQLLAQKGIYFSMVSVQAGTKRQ

For `CC(=O)N(CC(O)CO)c1c(I)c(C(=O)NCC(O)CO)c(I)c(C(=O)NCC(O)CO)c1I` (stereo not drawn) [iohexol], the “Inhibitory effect (% reduction of specific activity)” value (20 mM iohexol) was < 30%, the inhibition at 1 min, 2 mM (human, probe 3H-NMQ (N-methyl-quinidine), 0.01 µM, 2 mM iohexol, read-out: Inhibitory effect (% reduction of specific activity)) was -4.9% and the inhibition at 1 min, 20 mM (human, probe 3H-NMQ (N-methyl-quinidine), 0.01 µM, 20 mM iohexol, read-out: Inhibitory effect (% reduction of specific activity)) was 21%.
